Measurements reported in patent US7351531B2, “Molecules capable of binding to telomere and the like and method with the use of the same” (Japan Science and Technology Corporation, priority 2001, dated 2008).

Legend:
[1] = system: G-G mismatch base pair in 52-mer duplex DNA; assay: DNase I footprinting titration of 52-mer duplex DNA, G-G mismatch site; type: binding
Method: (§1) A 5′-^32P-labeled 52-mer duplex DNA having a GC base pair, GA mismatch base pair and a GG mismatch base pair in the duplex DNA was prepared. The partial listing of the corresponding moieties is shown below.
(§2) The inventors have analyzed the duplex DNA through DNase I (DNA hydrolase) footprinting titration for the sites where the DNA cleavage by DNase I was inhibited in the presence of a varying concentration of the compound of formula (III).
(§3) The relationship between the cleavage band intensity and the naphthyridine concentration in FIG. 1 is plotted to give a graph as in FIG. 2. The vertical axis of FIG. 2 indicates the cleavage inhibition ratio derived from the cleavage band intensity. […] The horizontal axis of FIG. 2 indicates the concentration (M) of the compound of formula (III) added to the test system. In FIG. 2, the closed circles (●) indicate the G-G mismatch site, and the closed triangles (▴) indicate the G-A mismatch site.
(§4) ^32P-5′-end-labeled 52-mer DNA was hybridized into a duplex DNA with G-G and G-A mismatches (see the right side of FIG. 1).
(§5) A varying concentration of the compound obtained in Example 1 was added to the duplex DNA, and the DNA was analyzed through DNase I footprinting titration.
(§6) Concretely, the duplex DNA (<4 nM strand concentration) was incubated at 4° C. for 12 hours along with a varying concentration of the compound obtained in Example 1, in a tris-HCl buffer (10 mM, pH 7.6) that contains NaCl (100 mM) and MgCl2(5 mM). To this was added 0.2 U DNaseI (DNA hydrolase), and this was further incubated at 25° C. for 8 minutes. Next, this was precipitated in ethanol to recover the DNA, which was then subjected to electrophoresis with a gel that contains 12% polyacrylamide and 7 M urea.

[2] = system: normal G-C base pair in 52-mer duplex DNA; assay: DNase I footprinting titration of 52-mer duplex DNA, normal G-C site; type: binding; conditions: concentration 0 to 500 μM, FIG. 1
Method: as §1, §2
In FIG. 1, the concentration of the compound of formula (III) varies from 0 to 500 μM from the left to the right. The sites cleaved with the DNase I (DNA hydrolase) are seen black, while those protected from cleavage with the DNase I are seen white.
as §4, §5
Concretely, the duplex DNA (<4 nM strand concentration) was incubated at 4° C. for 12 hours along with a varying concentration of the compound obtained in Example 1, in a tris-HCl buffer (10 mM, pH 7.6) that contains NaCl (100 mM) and MgCl2(5 mM). To this was added 0.2 U DNaseI (DNA hydrolase), and this was further incubated at 25° C. for 8 minutes. […]

[3] = system: G-A mismatch base pair in 52-mer duplex DNA; assay: DNase I footprinting titration of 52-mer duplex DNA, G-A mismatch site; type: binding; parameters: effect of inhibiting G-A mismatch site cleavage: dose or concentration left out as unconfirmed
Method: as §1, §2, §3, §4, §5, §6

[4] = system: single-stranded human telomere sequence DNA (22-mer 5'-AGGGTTAGGGTTAGGGTTAGGG3'); assay: Binding titration with single-stranded human telomere sequence DNA (22-mer, FIG. 4)
Method: Samples of single-stranded human telomere sequence DNA were tested for the inhibition of DNA cleavage by DNase I (DNA hydrolase) through footprinting titration in the presence of a varying concentration of the compound of formula (III) (this is hereinafter referred to as naphthyridine dimer or simply as ND).
The test result in FIG. 4 is similar to that in FIG. 2. The vertical axis of FIG. 4 indicates the cleavage inhibition ratio derived from the cleavage band intensity. […] The horizontal axis of FIG. 4 indicates the ratio of the G-G mismatch concentration to the concentration (M) of the compound of formula (III) added to the test system, [GG]/[ND] in which ND means the compound of formula (III).
A solution of a 22-mer oligonucleotide having the following base sequence: • 5′-[…]3′ (SEQ ID NO: 9) in a sodium cacodylate buffer (10 mM, pH 7.0, NaCl 100mM) was heated at 70° C. for 5 minutes, and then gradually cooled so that the oligomer could form a quadraplex structure (see Structure, 263, 1 (1993)). A varying concentration of a naphthyridine dimer was dropwise added to the resulting solution, and the naphthyridine dimer-binding amount was obtained through 360 nm absorptiometry.

[5] = 52-mer duplex DNA, DNase I footprinting titration

Cc1ccc2ccc(NC(=O)CCNCCC(=O)Nc3ccc4ccc(C)nc4n3)nc2n1 [compound of formula (III), dinaphthyridinamide]
association constant to the G-G mismatch (Ka(GGmis)) [1, 5]: 1.13e+07 M⁻¹
concentration at which G-G mismatch site cleavage by DNase I is almost completely inhibited ([1]; FIG. 2): about 10^−5 M
ratio of the association constants (Ka(GGmis))/(Ka(GAmis)) ([1]; G-G versus G-A mismatch, 52-mer duplex DNA): 696
protection of normal G-C base pair from DNase I cleavage [2]: cleaved by DNase I
effect of inhibiting G-A mismatch site cleavage [3]: about 90%
association constant to the G-A mismatch (Ka(GAmis)) [3, 5]: 16300 M⁻¹
concentration at which compound becomes effective for inhibiting cleavage of the G-A mismatch site ([3]; FIG. 2): about 10^−6 M
association constant to the G-G mismatch (Ka(GGmis)) in human telomere sequence ([4]; 22-mer, sodium cacodylate buffer pH 7.0, NaCl 100 mM, Scatchard plot): 420000 M⁻¹
concentration ratio [GG]/[ND] at which G-G mismatch site cleavage is almost completely inhibited ([4]; FIG. 4): about 3
concentration ratio [GG]/[ND] at which compound is already effective for inhibiting cleavage of the G-G mismatch site ([4]; FIG. 4, relatively low concentration): 0.5
